“Also recorded” adds a separate entry of the source.
System: Male Crl:CD-1 (ICR) BR mice
Experiment: Radiant heat tail-flick assay after topical drug application to the tail
Type: in vivo
Conditions: for analgesia in % of mice: alone or together, 2 min; for ED 50 value, propylene glycol alone / topical analgesic effect (in words) / ED 50 value, propylene glycol and lauric acid / time of maximal analgesic effect after topical application: topical; for ED 50 value, propylene glycol alone / ED 50 value, propylene glycol and lauric acid: tail immersed 2 min, tested immediately afterward; for ED 50 value, propylene glycol alone: vehicle propylene glycol alone; for topical analgesic effect (in words) / time of maximal analgesic effect after topical application / duration of analgesia: single drug; for ED 50 value, propylene glycol and lauric acid: vehicle propylene glycol and lauric acid (10:1); for duration of analgesia: FIG. 6: S-ibuprofen 4.8 mmol, diclofenac 3.5 mmol, 2 min exposure
Procedure: All in vivo studies were carried out in accordance with the Declaration of Helsinki and with the Guide for Care and Use of Laboratory Animals, as adopted and promulgated by the Estonian Põllumajandusministeerium. Male Crl:CD-1® (ICR) BR mice (20-25 g) were purchased from Charles River Laboratories (Germany) and were housed in a 12:12-h light-dark cycle temperature-controlled room with food and water freely available. Drugs were obtained from Sigma (St. Louis, Mo., USA). […] Briefly, the distal portion of the tail (2-3 cm) was immersed in a propylene glycol/dH2O (10:1 ratio) alone or propylene glycol and lauric acid combination (10:1) solution containing the indicated drugs for the stated time, usually 2 min.). Analgesia was defined quantitatively as tail-flick latency for an individual animal that was twice its baseline latency or greater using tail flick apparatus (Ugo Basile, Italy). […] ED50 values were determined with GraphPad Software.

[1] = FIG. 7A: morphine 0.15 mmol, diclofenac 0.9 mmol
[2] = FIG. 9A: methadone 0.7 mmol, diclofenac 0.9 mmol
[3] = FIG. 10A: methadone 0.7 mmol, S-ibuprofen 1.2 mmol
[4] = FIG. 11B: hydrocodone 0.6 mmol, S-ibuprofen 1.2 mmol

| Structure (SMILES) | analgesia in % of mice [1] [%] | ED 50 value, propylene glycol alone [mmol] | dose response shift to left of ED50 on addition of lauric acid to propylene glycol [fold] | analgesia in % of mice [2] [%] | analgesia in % of mice [3] [%] | topical analgesic effect (in words) | ED 50 value, propylene glycol and lauric acid [mmol] | analgesia in % of mice [4] [%] | time of maximal analgesic effect after topical application [min] | duration of analgesia [min] |
| --- | --- | --- | --- | --- | --- | --- | --- | --- | --- | --- |
| CN1CC[C@]23c4c5ccc(O)c4O[C@H]2[C@@H](O)C=C[C@H]3[C@H]1C5 [Morphine, morphine] | 20 | 7.6 |  |  |  |  |  |  |  |  |
| CCC(=O)C(CC(C)N(C)C)(c1ccccc1)c1ccccc1 (stereo not shown) [Methadone, methadone] |  | 6.7 | 6.7 | 30 | 25 | dose dependent (FIG. 4A) and naloxone sensitive | 1.0 |  |  |  |
| CC(C)Cc1ccc([C@H](C)C(=O)O)cc1 [S-ibuprofen] |  | 9.3 |  |  | 30 | dose dependent analgesia | 2.1 | 30 | 2 | 90 |
| CCN(CC)CC(=O)Nc1c(C)cccc1C [Lidocaine, lidocaine] |  | 2.2 |  |  |  | no differences in ED50; also recorded: significant and long acting analgesic effects |  |  |  |  |
| COc1ccc2c3c1O[C@H]1C(=O)CC[C@H]4[C@@H](C2)N(C)CC[C@]314 [Hydrocodone, hydrocodone] |  | 1.6 |  |  |  | most potent analgesic activity; also recorded: dose dependent response | 1.2 | 20 |  |  |
| O=C(O)Cc1ccccc1Nc1c(Cl)cccc1Cl [Diclofenac, diclofenac] | 30 | 3.3 |  | 30 |  | dose dependent analgesia | 1.1 |  | 2 | 90 |

Reference: patent US20100143449A1, “ANALGESIC COMPOSITION OF TOPICALLY APPLIED NONSTEROIDAL ANTIINFLAMMATORY DRUGS AND OPIOIDS” (priority 2007, published 2010)
